Assay [1] relates to Human melanoma (MEL 1106) cells. The assay can be described thus: FTIR-SPR measurements of Tfn-induced SPR signal shifts in a cell monolayer on an Au-coated ZnS prism. The assay is classed as cell-based. The conditions noted are these: for SPR signal shift on cell exposure to ligand: 5 μg/ml of Tfn, cells on Au-coated ZnS prism; for change in the average refraction index of cells Δn: calculated as Δn=ΔR/S at 4425 cm^−1. How it is done: Surface plasmon (SP) was excited using Kretchmann's geometry as illustrated in FIG. 3A employing the Bruker FTIR spectrometer (Equinox 55—Bruker Optik GmbH, Ettlingen, Germany) equipped with a KBr beam splitter as mid-IR source, and a right-angle ZnS prism having a 20×40 mm base (ISP Optics, Inc., Irvington, N.Y, US) coated with an 18-nm-thick gold film (electron-beam evaporation). Cells were cultured on the gold surface, as described below. The prism and cells were attached to a flow chamber mounted on a goniometer, in such way that the cells on the gold-coated base faced the flow chamber's volume (0.5 ml). The flow chamber was filled with cell culture medium, resulting in direct contact between the medium and the gold layer, or cells cultured on that layer. The medium was passed through the chamber at a constant flow rate (5 μl/min) during the entire experiment, using a motorized bee syringe pump equipped with a variable speed controller. The temperature of the medium flowing through the chamber was controlled (±0.1° C.). The infrared light from the output window of the FTIR instrument passed through a collimator, consisting of a 1-mm diameter pinhole mounted between two gold coated off-axis parabolic mirrors, m1 and m2, with focal lengths of about 76.2 mm and 25.4 mm, respectively, along with a grid polarizer and an iris. The collimated beam (˜4 mm in diameter) was reflected from the ZnS prism and focused by an additional parabolic mirror, m3, onto a liquid-nitrogen-cooled MCT (HgCdTe) detector, mounted on the goniometer.
Human melanoma (MEL 1106) cells were cultured on a 10-cm dish in Dolbecco's modified Eagle's medium (D-MEM, Biological Industries, Israel), supplemented with 4.5 g/l D-glucose, 10% antibiotics, and 10% fetal calf serum, as previously described for HeLa cells [Ziblat et al., 2006]. These cells were used in the SPR experiments, and their culture on Au coated prisms was performed as follows: upon reaching 70% confluence, cells were detached from the dish by trypsin C (0.05% Trypsin/EDTA in Puck's saline A; Biological Industries, Israel) treatment, and brought to a cell density of about 1.8×10^5 cells/ml in complete growth medium. With reference to FIG. 7, three milliliters of cell suspension 29 were seeded on top of the Au-coated ZnS prism 27 mounted onto a home-made polycarbonate holder, such that the cell suspension 29 covered the entire prism's base 28. Cells were allowed to attach for at least 3 hrs in a CO2 incubator (5% CO2, 37° C., 90% humidity). Thereafter, growth medium (5 ml) was added and the prism 27 was placed in a CO2 incubator for an additional 2-3 days, until a uniform and nearly confluent monolayer of cells (above 70%; ˜30 cells per 1000 μm^2) covered the Au-surface.
In the initial phase of each experiment, cells cultured on an Au-coated prism were exposed to serum-free DMEM for 3 hours at […] for depleting the cells from internal pools of Tfn contributed by the serum. The prism with the cultured cells was then attached to the flow chamber, which was rapidly filled with pre-warmed (37° C.) minimal essential medium (MEM) containing Hank's salts (GIBCO), 20 mM Hepes, pH 7.2, and 5 μg/ml BSA (MEM-BSA). The temperature in the flow chamber was adjusted to 37° C.±0.1° C., unless otherwise indicated. Thereafter, the angle of incidence in the SPR configuration was set to θ=35.5°. […] These parameters were optimal, allowing maximal sensitivity (S=ΔR/Δn), and reasonable SP penetration depth/propagation length.
The reflectivity of the s-polarized beam was used as a background for subsequent measurements. The SPR signal is the ratio of the reflectivities obtained for the p-polarized and s-polarized beams. The FTIR-SPR set-up of the invention repeatedly measured the reflectivity spectra. This was done every 25 seconds with a 4-cm^−1 wavenumber resolution and with 16-scan averaging. The SPR measurements were carried out continuously for 15-20 minutes, until a stable SPR signal was recorded. […]

The subject of assay [2] is Melanoma cells. Description: Time-lapse confocal imaging of fluorescently tagged-Tfn uptake. The assay is classed as cell-based, human. How it is done: Melanoma cells were cultured to ˜50% confluence on glass bottom culture dishes (35 mm dish, 14 mm Microwell; MatTek, Co., MA, USA). Cells were first exposed to growth medium lacking serum for 3 hrs prior to the experiment, and then washed three times with internalization buffer (150 mM NaCl, 20 mM Hepes, pH 7.4, 1 mM CaCl2, 5 mM KCl, 1 mM MgCl2, 10 mM Glucose). Following the last wash, internalization buffer containing 0.1 μM sulforhodamine green (SRG) (Biotium, Hayward, Calif.) was added to the medium. Cells were imaged (FIG. 10A—confocal imaging of live cells performed simultaneously in the green and red channels, about 30 sec (designated time 0) after cell exposure to the ligand) with an Olympus FV-1000 confocal microscope equipped with an on-scope incubator (Life Image Services, Bazel, Switzerland), which controls temperature and humidity, and provides an atmosphere of 5% CO2. A 60×/NA=1.35 oil immersion objective was used. […] First, one plane of focus was acquired, and Rhodamine Red'-holo Tfn (5 μg/ml; Jackson ImmunoResearch) was introduced into the imaging buffer. Confocal images of both the SRG (Ex: 514 nm; Em: 535-565 nm) and Rhodamine Red-holo-Tfn (Ex: 543 nm; Em: 560-660 nm) were acquired from the same section every 10 or 20 sec. A similar protocol was used for Lissamine Rhodamine-apo-Tfn, except that the SRG was imaged using 488-nm excitation and a 505-525-nm emission filter. The FV1000 was equipped with the ZDC (Zero Drift Controller) option, to maintain the same focus plane throughout the entire period of imaging.
The images were processed using ImageJ [Rasband, W. S., ImageJ, U.S. National Institutes of Health, Bethesda, Md., USA, http://rsb.info.nih.gov/ij/, 1997-2007] to determine fluorescence levels within cells as follows: First the despeckle filter (essentially a median filter with a 3×3 kernel) was applied to remove point noise and the SRG image was used to determine the cell boundaries; then, the average fluorescence intensity inside the cells (F(t)intracellular) was divided by the average fluorescence intensity in a region of interest outside the cells (<F(t)>extracellular). This procedure was adopted based on the assumption that there is insignificant depletion of labeled Tfn in the medium, so that the fluorescence in the medium should remain constant.
Then, the fluorescence levels within the bounded area were determined in the red channels for each time frame. Background fluorescence levels measured before the addition of Rhodamine Red-Tfn were subtracted from values measured in the same channel during ligand introduction.

Assay [3] has as its system human red blood cells (RBCs). Description: FTIR-SPR measurement of glucose uptake by erythrocyte suspension. The conditions noted are these: λ=4 μm, 22° C., erythrocyte suspension in PBS. The format is cell-based. The procedure: In the following section measurements of glucose uptake by erythrocyte suspension in the PBS medium are described. Briefly, fresh human red blood cells (RBCs) were washed four times in PBS by centrifugation. The supernatant and buffy coat cells were discarded and RBCs were resuspended in glucose-free PBS to yield ce=5% v/v. For complete glucose depletion, cells were incubated for 60 min at 22° C. in PBS. Then, RBCs were centrifuged and resuspended in fresh PBS containing the required concentrations of D-glucose supplemented with L-glucose, to keep the total glucose concentration (osmolarity) equal to 20 mM. The SPR measurements were performed at 22° C. to slow down cellular glycolysis. The measurements were performed using a ZnS prism coated with a 12-nm thick Au film. […] Although the sensitivity at this wavelength is low (FIG. 19A), the use of such a long wavelength here is mandatory in order to sense the processes inside erythrocytes. The average distance between the erythrocytes is Dece^1/3=17 μm. The surface plasmon propagation length, Lx=30 μm (FIG. 21), exceeds the distance between erythrocytes.
(In SPR one partner is held on a chip, and binding of the other changes the refractive index at the surface.)

For assay [4], the system named is Melanoma 1106 cell. The assay can be described thus: FTIR-SPR of ferrotransferrin uptake with long-wavelength surface plasmon. The format is cell-based, human. Conditions: λ=2.54 μm. From the text:
The FTIR-SPR technique of the invention was applied to study transferrin-induced clathrin-mediated endocytic processes that introduce Fe ions into the cell.
The same process was studied using a long-wavelength surface plasmon at λ=2.54 μm. Its penetration depth, δzd=1.2 μm (FIG. 20), is deep enough to penetrate the cells, although it senses mostly the cell periphery. […] The kinetics of the SPR reflectivity closely follows the fluorescence kinetics in the cell periphery (FIG. 27A), as expected. […] The obvious advantage of the SPR technique is that it is label-free. […] This rules out the possibility that the SPR shift results from accumulation of organic molecules in the cell (this would increase the refractive index). […] This is consistent with the biological picture of endocytosis that includes transferrin-induced vesicular transport.

The subject of assay [5] is HeLa cells. The assay can be described thus: FTIR-SPR of cholesterol enrichment/depletion of the cell membrane. The format is cell-based, human. Conditions: λ=1.08 μm, 37° C.; mβCD-chol at t=0, mβCD at t=15 for 3 min. From the text: The penetration of cholesterol into the plasma membrane of the HeLa cells was studied with the FTIR-SPR technique of the invention (similar studies using SPR in the visible range were reported by Besenicar et al., [Biochimica et Biophysica Acta-Biomembranes, 177, 175 (2008).]. It is well-known that cholesterol enters mostly into the plasma membrane rather than into cytoplasm. Therefore, to achieve high sensitivity to membrane-related events, the near-infrared wavelength range was chosen, λsp=1÷1:08 μm, characterized by a relatively low SPR penetration depth.
The HeLa cells were grown on an SF-11 glass prism coated with 35-nm-thick gold film. The prism with the cells was mounted into a flow chamber and was equilibrated in growth medium for 5-7 minutes at 37° C. Then 10 mM of mfβCD-chol (methyl-beta-cyclodextrin loaded with cholesterol) was added, which is known to enrich the cells by cholesterol. The FTIR-SPR spectra was measured before and after adding the drugs. […] This corresponds to a refractive index increase because cholesterol has a higher refractive index than water. In contrast, when a similar chemical, mβCD, which is not loaded with cholesterol, was added (at t=15 for 3 min) to a growth solution the SPR is blue-shifted, which corresponds to a refractive index decrease. […]

As for `CN(C)CCCN1c2ccccc2Sc2ccc(Cl)cc21` [CPZ, Chlorpromazine, reference compound], in assay [1] (100 μM CPZ in MEM/BSA, 37° C.), the “SPR signal shift immediately after cell exposure to the drug” value is given as “sizeable shift of the SPR signal towards shorter wavelengths”. Moreover, the “effect on holo-Tfn-induced SPR signal shifts” value in assay [1] (100 μM CPZ, then approximately 90 min washout, compared with untreated cells) is “diminished SPR signal shifts”. For the same molecule, in assay [1] (CPZ treatment per se), the “blue shift in the SPR signal relative to that induced by Tfn” value stood at 10 times. Further, the “washout time after which a steady SPR signal was measured” value in assay [1] (CPZ washout with plain MEM/BSA) is reported as ~30 min. The “SPR signal shift on removal (washout) with plain MEM/BSA” value in assay [1] is “ongoing decrease”. Besides, the “effect on rate of holo-Tfn uptake into the cells (fluorescence)” value in assay [2] (CPZ treatment followed by 90 min of drug washout, 37° C.) is reported as “significantly decreased the rate of holo-Tfn uptake”.
`O=C[C@H](O)[C@@H](O)[C@H](O)[C@H](O)CO` [D-glucose]: the “reflectivity in the SPR regime upon addition” value in assay [3] is reported as “reflectivity in the SPR regime rapidly increases with time, until saturation is reached”.
Regarding “Rhodamine Red-holo-Tfn: Rhodamine Red tagged holo-Tfn (Jackson ImmunoResearch) used for fluorescence imaging [reference compound]”, the “ligand internalization rates (fluorescence)” value in assay [2] (lower temperatures (30° C. vs 37° C.)) is “reduced ligand internalization rates”.
For “apo-Tfn: Human apo-Tfn dialyzed against sodium citrate to remove possible iron traces; tagged with Lissamine Rhodamine for imaging”, the “SPR signal shift on cell exposure to ligand” value in assay [1] (37° C.) is recorded as “small SPR signal shifts”. The “change in the average refraction index of cells Δn” value in assay [1] is “smaller than −1*10^−4”. Besides, the “accumulation of tagged Tfn fluorescence within the cells” value in assay [2] (37° C.) is given as “accumulated within the cells at slower rates”.
As to “holo-Tfn: Human apo-Tfn (transferrin) loaded with iron, which converts it to holo-Tfn”, in assay [1] (37° C.), the “SPR signal shift on cell exposure to ligand” value is “time-dependent shifts of the SPR minimum towards shorter wavelengths” and the “Tfn-induced SPR shifts” value is listed as “maximal shifts”. The “Tfn-induced SPR shifts” value in assay [1] (19° C.) is recorded as “diminished SPR shifts”. Also, in assay [1] (30° C.), the “Tfn-induced SPR shifts” value is on record as “larger SPR shifts”. Moreover, in assay [1], the “change in the average refraction index of cells Δn” value was −4*10^−4 and the “SPR signal shift on removal (washout) with plain MEM/BSA” value is given as “red-shift in the SPR signal”. In assay [1] (holo-Tfn, 37° C.), the “time over which the SPR signal increased before levelling off” value lay within 2 to 3 min. For the same molecule, the “cell fluorescence intensity over time” value in assay [2] (holo-Ft tagged with Rhodamine Red, Melanoma 1106 cell) was “fluorescence intensity increases and then achieves saturation”. For the same molecule, the “SPR shift upon introduction into the solution” value in assay [4] is given as “blue-shifted”.
As for “methyl-β-cyclodextrin [mβCD, reference compound]”, the “effect on holo-Tfn-induced SPR signal shift (cholesterol depletion / replenishment)” value in assay [1] (mβCD 3 mM for 15 min at 37° C., rinsed, then holo-Tfn) is given as “diminished compared with untreated cells”. For the same molecule, the “SPR shift after addition to growth medium” value in assay [5] is listed as “blue-shifted”.

The record behind these values is US20110188043A1, “METHOD AND APPARATUS FOR MONITORING PROCESSES IN LIVING CELLS” (Yissum, Research Development Company of The Hebrew …, priority 2007, published 2011).
